Patent US9278163B2, “Implantable polymeric device for sustained release of dopamine agonist” (Titan Pharmaceuticals, Inc., priority 2003, dated 2016)
Structures can show the parent of a compound that is named as a salt.

Test system: MPTP-lesioned, L-DOPA-naïve cynomolgus monkeys
Assay: In vivo evaluation of implants vs pulsatile subcutaneous injections ("ON" status, dyskinesia)

time to development of dyskinesias (daily subcutaneous injections, 0.2 mg/kg, range 7-10): 8.3 days
SMILES: CN1CCc2cccc3c2[C@H]1Cc1ccc(O)c(O)c1-3 [apomorphine, Apomorphine HCl]
minimally-effective dose to achieve "ON" status (daily subcutaneous injection): 0.2 mg/kg
development of dyskinesia (duration of treatment up to six months for implants, daily injections 0.2 mg/kg): all animals in the pulsatile injection group developed dyskinesias
duration of "ON" state after each administration (pulsatile daily subcutaneous injections, 0.2 mg/kg): approximately 90 minutes
